# Test results from patent US11034718B2, “C-3 novel triterpenone with C-17 reverse amide derivatives as HIV inhibitors” (HETERO LABS LIMITED, priority 2015, dated 2021).
# Where a name gives a salt, the structure may show the parent alone. Read-outs that look alike come from different tables or passages of the source.
# Columns and labels:
# Assay type in all cases: cell-based
# HIV-1 strain 92HT599 = test: Antiviral activity against HIV-1 strain 92HT599 in MT2 cells (p24 estimation); settings: HIV-1 92HT599, ~96 hours
# Description: Example 77: Evaluation of Compounds Antiviral Activity Against HIV-1 Strain 92HT599 in MT2 Cells
# MT2 cells were infected with HIV-1 strain 92HT599 (10 TCID 50/30000 cells). The infected cells were plated at the concentration of 30,000 cells per well in 96 well plate. Test compound was added to the micro plate in defined format with the final concentration of DMSO (vehicle) is not more than 1%. Incubation was carried out in CO2 incubator for ˜96 hours for viral infection. At the end of incubation period an aliquot from each well was taken for p24 estimation. The quantitation of p24 is an index for antiviral activity of the compound. Percent inhibition was calculated with reference to control values (vehicle controls). p24 estimation was carried out using Advance biosciences kit as per the procedure detailed by supplier.
# HIV-1 pNL4-3 WT = test: Antiviral activity against pNL4-3/WT strain in MT4 cells (p24 estimation); settings: Human immunodeficiency virus 1, MT4, 96 h, read-out: pNL4-3 WT IC50
# Description: (§1) Example 78: Evaluation of Compounds Antiviral Activity Against pNL4-3/WT & V7A Strains in MT4 Cells
# (§2) MT4 cells were Transfected with HIV-1 Plasmid (pNL4-3-WT & V7A) (Cells were incubating with required number of TCID50 of HIV-1 for 1.5 h at 37° C.). After infection, the infected cells were plated at the concentration of 3×10^4 cells per well in 96 well plate. Test compound was added to the test plate in defined format with the final concentration of DMSO is not more than 1%. Incubation was carried out in CO2 incubator for 4 days for viral infection. At the end of incubation period an aliquot from each well was taken for p24 estimation. p24 estimation was carried out using Advance biosciences kit as per the procedure detailed by supplier.
# HIV-1 pNL4-3 V7A = test: Antiviral activity against pNL4-3/V7A strain in MT4 cells (p24 estimation); settings: Human immunodeficiency virus 1, MT4, 96 h, read-out: pNL4-3 V7A IC50
# Description: as §1, §2
# [1] = Human immunodeficiency virus 1, 0% serum binding assay, read-out: IC50 0% serum
# [2] = Human immunodeficiency virus 1, 40% serum binding assay, read-out: IC50 40% serum
Structure (SMILES),IC50 (HIV-1 strain 92HT599; [1]) [nM],IC50 (HIV-1 strain 92HT599; [2]) [nM],IC50 (HIV-1 pNL4-3 WT) [nM],IC50 (HIV-1 pNL4-3 V7A) [nM]
"Cc1cccc(NC(=O)NC(C)(C)C(=O)N[C@@]23CC[C@]4(C)[C@H](CC[C@@H]5[C@@]6(C)CC[C@H](OC(=O)[C@H]7C[C@@H](C(=O)O)C7(C)C)C(C)(C)[C@@H]6CC[C@]54C)C2=C(C(C)C)C(=O)C3)n1 [Example 72, (1R,3S)-3-((((3aR,5aR,5bR,7aR,9S,11aR,11bR,13aS)-1-isopropyl-5a,5b,8,8,11a-pentamethyl-3a-(2-methyl-2-(3-(6-methylpyridin-2-yl)ureido)propanamido)-2-oxo-3,3a,4,5,5a,5b,6,7,7a,8,9,10,11,11a,11b,12,13,13a-octadecahydro-2H-cyclopenta[a]chrysen-9-yl)oxy)carbonyl)-2,2-dimethylcyclobutane-1-carboxylic acid]",< 3,< 50,< 5,> 50
"Cc1cccnc1C(=O)NC(C)(C)C(=O)N[C@@]12CC[C@]3(C)[C@H](CC[C@@H]4[C@@]5(C)CC[C@H](OC(=O)[C@H]6C[C@@H](C(=O)O)C6(C)C)C(C)(C)[C@@H]5CC[C@]43C)C1=C(C(C)C)C(=O)C2 [Example 29, (1R,3S)-3-((((3aR,5aR,5bR,7aR,9S,11aR,11bR,13aS)-1-isopropyl-5a,5b,8,8,11a-pentamethyl-3a-(2-methyl-2-(3-methylpicolinamido)propanamido)-2-oxo-3,3a,4,5,5a,5b,6,7,7a,8,9,10,11,11a,11b,12,13,13a-octadecahydro-2H-cyclopenta[a]chrysen-9-yl)oxy)carbonyl)-2,2-dimethylcyclobutane-1-carboxylic acid]",,,< 5,10 to 50
"CC(C)C1=C2[C@H]3CC[C@@H]4[C@@]5(C)CC[C@H](OC(=O)[C@H]6C[C@@H](C(=O)O)C6(C)C)C(C)(C)[C@@H]5CC[C@@]4(C)[C@]3(C)CC[C@@]2(NC(=O)C(C)(C)NC(=O)CN2CCCCC2)CC1=O [Example 10, (1R,3S)-3-((((3aR,5aR,5bR,7aR,9S,11aR,11bR,13aS)-1-isopropyl-5a,5b,8,8,11a-pentamethyl-3a-(2-methyl-2-(2-(piperidin-1-yl)acetamido)propan amido)-2-oxo-3,3a,4,5,5a,5b,6,7,7a,8,9,10,11,11a,11b,12,13,13a-octadecahydro-2H-cyclopenta[a]chrysen-9-yl)oxy)carbonyl)-2,2-dimethylcyclobutane-1-carboxylic acid]",< 3,< 50,,
"Cc1ccc(-c2nc3cc(C(=O)NC(C)(C)C(=O)N[C@@]45CC[C@]6(C)[C@H](CC[C@@H]7[C@@]8(C)CC[C@H](OC(=O)[C@H]9C[C@@H](C(=O)O)C9(C)C)C(C)(C)[C@@H]8CC[C@]76C)C4=C(C(C)C)C(=O)C5)ccc3[nH]2)cn1 [Example 13, (1R,3S)-3-((((3aR,5aR,5bR,7aR,9S,11aR,11bR,13aS)-1-isopropyl-5a,5b,8,8,11a-pentamethyl-3a-(2-methyl-2-(2-(6-methylpyridin-3-yl)-1H-benzo[d]imidazole-5-carboxamido)propanamido)-2-oxo-3,3a,4,5,5a,5b,6,7,7a,8,9,10,11,11a,11b,12,13,13a-octadecahydro-2H-cyclopenta[a]chrysen-9-yl)oxy)carbonyl)-2,2-dimethylcyclobutane-1-carboxylic acid]",< 3,< 50,,
"Cc1cccc(C(=O)NC(C)(C)C(=O)N[C@@]23CC[C@]4(C)[C@H](CC[C@@H]5[C@@]6(C)CC[C@H](OC(=O)[C@H]7C[C@@H](C(=O)O)C7(C)C)C(C)(C)[C@@H]6CC[C@]54C)C2=C(C(C)C)C(=O)C3)n1 [Example 60, (1R,3S)-3-((((3aR,5aR,5bR,7aR,9S,11aR,11bR,13aS)-1-isopropyl-5a,5b,8,8,11a-pentamethyl-3a-(2-methyl-2-(6-methylpicolinamido)propanamido)-2-oxo-3,3a,4,5,5a,5b,6,7,7a,8,9,10,11,11a,11b,12,13,13a-octadecahydro-2H-cyclopenta[a]chrysen-9-yl)oxy)carbonyl)-2,2-dimethylcyclobutane-1-carboxylic acid]",< 3,< 50,,
"Cc1ccc(C(=O)NC2(C(=O)N[C@@]34CC[C@]5(C)[C@H](CC[C@@H]6[C@@]7(C)CC[C@H](OC(=O)[C@H]8C[C@@H](C(=O)O)C8(C)C)C(C)(C)[C@@H]7CC[C@]65C)C3=C(C(C)C)C(=O)C4)CCCCC2)cc1 [Example 50, (1R,3S)-3-((((3aR,5aR,5bR,7aR,9S,11aR,11bR,13aS)-1-isopropyl-5a,5b,8,8,11a-pentamethyl-3a-(1-(4-methylbenzamido)cyclohexane-1-carboxamido)-2-oxo-3,3a,4,5,5a,5b,6,7,7a,8,9,10,11,11a,11b,12,13,13a-octadecahydro-2H-cyclopenta[a]chrysen 9-yl)oxy)carbonyl)-2,2-dimethylcyclobutane-1-carboxylic acid]",< 3,< 50,,
"CC(C)C1=C2[C@H]3CC[C@@H]4[C@@]5(C)CC[C@H](OC(=O)[C@H]6C[C@@H](C(=O)O)C6(C)C)C(C)(C)[C@@H]5CC[C@@]4(C)[C@]3(C)CC[C@@]2(NC(=O)C(C)(C)NC(=O)c2ccc(N)nc2)CC1=O [Example 6, (1R,3S)-3-((((3aR,5aR,5bR,7aR,9S,11aR,11bR,13aS)-3a-(2-(6-aminonicotinamido)-2-methylpropanamido)-1-isopropyl-5a,5b,8,8,11a-pentamethyl-2-oxo-3,3a,4,5,5a,5b,6,7,7a,8,9,10,11,11a,11b,12,13,13a-octadecahydro-2H-cyclopenta[a]chrysen-9-yl)oxy)carbonyl)-2,2-dimethylcyclobutane-1-carboxylic acid]",< 3,50 to 200,,
"CC(C)C1=C2[C@H]3CC[C@@H]4[C@@]5(C)CC[C@H](OC(=O)[C@H]6C[C@@H](C(=O)O)C6(C)C)C(C)(C)[C@@H]5CC[C@@]4(C)[C@]3(C)CC[C@@]2(NC(=O)C(C)(C)NC(=O)c2ccc(Cl)c(Cl)c2)CC1=O [Example 4, (1R,3S)-3-((((3aR,5aR,5bR,7aR,9S,11aR,11bR,13aS)-3a-(2-(3,4-dichlorobenzamido)-2-methylpropanamido)-1-isopropyl-5a,5b,8,8,11a-pentamethyl-2-oxo-3,3a,4,5,5a,5b,6,7,7a,8,9,10,11,11a,11b,12,13,13a-octadecahydro-2H-cyclopenta[a]chrysen-9-yl)oxy)carbonyl)-2,2-dimethylcyclobutane-1-carboxylic acid]",< 3,< 50,,
CC(C)C1=C2[C@H]3CC[C@@H]4[C@@]5(C)CC[C@H](OC(=O)[C@H]6C[C@@H](C(=O)O)C6(C)C)C(C)(C)[C@@H]5CC[C@@]4(C)[C@]3(C)CC[C@@]2(NC(=O)C(C)(C)NC(=O)OC(C)(C)C)CC1=O [Example 75],< 3,< 50,,
"CC(C)C1=C2[C@H]3CC[C@@H]4[C@@]5(C)CC[C@H](OC(=O)[C@H]6C[C@@H](C(=O)O)C6(C)C)C(C)(C)[C@@H]5CC[C@@]4(C)[C@]3(C)CC[C@@]2(NC(=O)C2(NC(=O)c3ccc(Cl)cc3)CCCCC2)CC1=O [Example 48, (1R,3S)-3-((((3aR,5aR,5bR,7aR,9S,11aR,11bR,13aS)-3a-(1-(4-chlorobenzamido)cyclohexane-1-carboxamido)-1-isopropyl-5a,5b,8,8,11a-pentamethyl-2-oxo-3,3a,4,5,5a,5b,6,7,7a,8,9,10,11,11a,11b,12,13,13a-octadecahydro-2H-cyclopenta[a]chrysen-9-yl)oxy)carbonyl)-2,2-dimethylcyclobutane-1-carboxylic acid]",< 3,< 50,,
"CC(C)C1=C2[C@H]3CC[C@@H]4[C@@]5(C)CC[C@H](OC(=O)[C@H]6C[C@@H](C(=O)O)C6(C)C)C(C)(C)[C@@H]5CC[C@@]4(C)[C@]3(C)CC[C@@]2(NC(=O)C(C)(C)NC(=O)c2ccco2)CC1=O [Example 26, (1R,3S)-3-((((3aR,5aR,5bR,7aR,9S,11aR,11bR,13aS)-3a-(2-(furan-2-carboxamido)-2-methylpropanamido)-1-isopropyl-5a,5b,8,8,11a-pentamethyl-2-oxo-3,3a,4,5,5a,5b,6,7,7a,8,9,10,11,11a,11b,12,13,13a-octadecahydro-2H-cyclopenta[a]chrysen-9-yl)oxy)carbonyl)-2,2-dimethylcyclobutane-1-carboxylic acid]",< 3,50 to 200,,
"CC(C)C1=C2[C@H]3CC[C@@H]4[C@@]5(C)CC[C@H](OC(=O)[C@H]6C[C@@H](C(=O)O)C6(C)C)C(C)(C)[C@@H]5CC[C@@]4(C)[C@]3(C)CC[C@@]2(NC(=O)C(C)(C)NC(=O)[C@@H]2CCCN2)CC1=O [Example 76, (1R,3S)-3-((((3aR,5aR,5bR,7aR,9S,11aR,11bR,13aS)-1-isopropyl-5a,5b,8,8,11a-pentamethyl-3a-(2-methyl-2-((S)-pyrrolidine-2-carboxamido)propanamido)-2-oxo-3,3a,4,5,5a,5b,6,7,7a,8,9,10,11,11a,11b,12,13,13a-octadecahydro-2H-cyclopenta[a]chrysen-9-yl)oxy)carbonyl)-2,2-dimethylcyclobutane-1-carboxylic acid hydrochloride]",< 3,50 to 200,,
